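Cultured in 96-well plates, cells were exposed to test compound for 48 hours across five concentrations. Here, GI50 denotes the concentration required for 50% inhibition of growth. At the TGI there is no net growth.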
Tests used:
Assay in all cases: DTP human tumour cell line panel, 48 h; in the data active means GI50 below about 0.43 µM; inactive means the rest
HOP-92 NSCLC = tested on: HOP-92 NSCLC
SK-MEL-5 melanoma = tested on: SK-MEL-5 melanoma
HCC-2998 colon = tested on: HCC-2998 colon
HT29 colon = tested on: HT29 colon
UO-31 renal = tested on: UO-31 renal
LXFL 529 NSCLC = tested on: LXFL 529 NSCLC
A549 NSCLC = tested on: A549 NSCLC
SW-620 colon = tested on: SW-620 colon
M19-MEL melanoma = tested on: M19-MEL melanoma
RPMI-8226 leukemia = tested on: RPMI-8226 leukemia
HCT-15 colon = tested on: HCT-15 colon
K-562 leukemia = tested on: K-562 leukemia
MALME-3M melanoma = tested on: MALME-3M melanoma
SF-268 CNS = tested on: SF-268 CNS
TK-10 renal = tested on: TK-10 renal
ACHN renal = tested on: ACHN renal
M14 melanoma = tested on: M14 melanoma
OVCAR-3 ovarian = tested on: OVCAR-3 ovarian
SF-539 CNS = tested on: SF-539 CNS
SK-MEL-2 melanoma = tested on: SK-MEL-2 melanoma
MOLT-4 leukemia = tested on: MOLT-4 leukemia
SNB-78 CNS = tested on: SNB-78 CNS
DMS 273 small cell lung = tested on: DMS 273 small cell lung
NCI-H226 lung = tested on: NCI-H226 lung
SNB-19 CNS = tested on: SNB-19 CNS
NCI-H522 lung = tested on: NCI-H522 lung
HOP-18 NSCLC = tested on: HOP-18 NSCLC
CCRF-CEM leukemia = tested on: CCRF-CEM leukemia
OVCAR-4 ovarian = tested on: OVCAR-4 ovarian
SK-MEL-28 melanoma = tested on: SK-MEL-28 melanoma
COLO 205 colon = tested on: COLO 205 colon
OVCAR-8 ovarian = tested on: OVCAR-8 ovarian
KM12 colon = tested on: KM12 colon
HL-60(TB) leukemia = tested on: HL-60(TB) leukemia
HCT-116 colon = tested on: HCT-116 colon
NCI-H460 lung = tested on: NCI-H460 lung
U251 CNS = tested on: U251 CNS
SK-OV-3 ovarian = tested on: SK-OV-3 ovarian
NCI-H23 lung = tested on: NCI-H23 lung
SNB-75 CNS = tested on: SNB-75 CNS
RXF 393 renal = tested on: RXF 393 renal
EKVX NSCLC = tested on: EKVX NSCLC
SN12C renal = tested on: SN12C renal
UACC-257 melanoma = tested on: UACC-257 melanoma
OVCAR-5 ovarian = tested on: OVCAR-5 ovarian
KM20L2 colon = tested on: KM20L2 colon
SF-295 CNS = tested on: SF-295 CNS
IGROV1 ovarian = tested on: IGROV1 ovarian
UACC-62 melanoma = tested on: UACC-62 melanoma
DLD-1 colon = tested on: DLD-1 colon
HOP-62 NSCLC = tested on: HOP-62 NSCLC
LOX IMVI melanoma = tested on: LOX IMVI melanoma
CAKI-1 renal = tested on: CAKI-1 renal
786-0 renal = tested on: 786-0 renal
A498 renal = tested on: A498 renal

NC1CCCCC1N.O=S(=O)([O-])CCCN1CCOCC1.O=S(=O)([O-])CCCN1CCOCC1.[Pt+4]
44.5 µM: TGI (SK-MEL-2 melanoma)
14.1 µM: TGI (MOLT-4 leukemia)
> 92.2 µM: TGI (NCI-H23 lung)
inactive: GI50 (HOP-92 NSCLC) 32.4 µM | GI50 (SK-MEL-5 melanoma) 9.83 µM | GI50 (HCC-2998 colon) 36.3 µM | GI50 (HT29 colon) 12.8 µM | GI50 (UO-31 renal) 19.3 µM | GI50 (LXFL 529 NSCLC) 27.4 µM | GI50 (A549 NSCLC) 4.72 µM | GI50 (SW-620 colon) 1.32 µM | GI50 (M19-MEL melanoma) 4.52 µM | GI50 (RPMI-8226 leukemia) 1.05 µM | GI50 (HCT-15 colon) 8.4 µM | GI50 (K-562 leukemia) 7.29 µM | GI50 (MALME-3M melanoma) 5.23 µM | GI50 (SF-268 CNS) 9.92 µM | GI50 (TK-10 renal) > 100 µM | GI50 (ACHN renal) 8.17 µM | GI50 (M14 melanoma) 14.4 µM | GI50 (OVCAR-3 ovarian) 19.3 µM | GI50 (SF-539 CNS) 27.5 µM | GI50 (SK-MEL-2 melanoma) 13.3 µM | GI50 (MOLT-4 leukemia) 2.33 µM | GI50 (SNB-78 CNS) > 100 µM | GI50 (DMS 273 small cell lung) 4.87 µM | GI50 (NCI-H226 lung) 22.5 µM | GI50 (SNB-19 CNS) 25.7 µM | GI50 (NCI-H522 lung) 4.64 µM | GI50 (HOP-18 NSCLC) 16 µM | GI50 (CCRF-CEM leukemia) 5.16 µM | GI50 (OVCAR-4 ovarian) > 29.7 µM | GI50 (SK-MEL-28 melanoma) 5.32 µM | GI50 (COLO 205 colon) 10.7 µM | GI50 (OVCAR-8 ovarian) 10.6 µM | GI50 (KM12 colon) 35.1 µM | GI50 (HL-60(TB) leukemia) 4.81 µM | GI50 (HCT-116 colon) 4.2 µM | GI50 (NCI-H460 lung) 3.54 µM | GI50 (U251 CNS) 13.7 µM | GI50 (SK-OV-3 ovarian) > 100 µM | GI50 (NCI-H23 lung) 18.2 µM | GI50 (SNB-75 CNS) > 100 µM | GI50 (RXF 393 renal) > 49.4 µM | GI50 (EKVX NSCLC) > 100 µM | GI50 (SN12C renal) 10.7 µM | GI50 (UACC-257 melanoma) 54.6 µM | GI50 (OVCAR-5 ovarian) 26 µM | GI50 (KM20L2 colon) 5.48 µM | GI50 (SF-295 CNS) 15.5 µM | GI50 (IGROV1 ovarian) 18.1 µM | GI50 (UACC-62 melanoma) 11.8 µM | GI50 (DLD-1 colon) 28.3 µM | GI50 (HOP-62 NSCLC) > 100 µM | GI50 (LOX IMVI melanoma) 16.2 µM | GI50 (CAKI-1 renal) 5.01 µM | GI50 (786-0 renal) 5.7 µM | GI50 (A498 renal) 49 µM
20.6 µM: TGI (NCI-H522 lung)
> 85.8 µM: TGI (CAKI-1 renal)
30.5 µM: TGI (K-562 leukemia)
19.7 µM: TGI (HL-60(TB) leukemia)
22.5 µM: TGI (MALME-3M melanoma)
17.1 µM: TGI (SW-620 colon)
58.7 µM: TGI (CCRF-CEM leukemia)
> 83.1 µM: TGI (UACC-62 melanoma)
> 100 µM: TGI (HOP-92 NSCLC) | TGI (HCC-2998 colon) | TGI (HT29 colon) | TGI (UO-31 renal) | TGI (LXFL 529 NSCLC) | TGI (A549 NSCLC) | TGI (M19-MEL melanoma) | TGI (SF-268 CNS) | TGI (TK-10 renal) | TGI (ACHN renal) | TGI (M14 melanoma) | TGI (OVCAR-3 ovarian) | TGI (SF-539 CNS) | TGI (SNB-78 CNS) | TGI (DMS 273 small cell lung) | TGI (NCI-H226 lung) | TGI (SNB-19 CNS) | TGI (OVCAR-4 ovarian) | TGI (OVCAR-8 ovarian) | TGI (KM12 colon) | TGI (HCT-116 colon) | TGI (NCI-H460 lung) | TGI (U251 CNS) | TGI (SK-OV-3 ovarian) | TGI (SNB-75 CNS) | TGI (RXF 393 renal) | TGI (EKVX NSCLC) | TGI (SN12C renal) | TGI (UACC-257 melanoma) | TGI (OVCAR-5 ovarian) | TGI (KM20L2 colon) | TGI (SF-295 CNS) | TGI (IGROV1 ovarian) | TGI (DLD-1 colon) | TGI (HOP-62 NSCLC) | TGI (786-0 renal) | TGI (A498 renal)
> 51.4 µM: TGI (RPMI-8226 leukemia)
> 59.2 µM: TGI (LOX IMVI melanoma)
22.2 µM: TGI (SK-MEL-5 melanoma)
> 56.6 µM: TGI (HCT-15 colon)
42.8 µM: TGI (COLO 205 colon)
48.3 µM: TGI (SK-MEL-28 melanoma)
> 89.2 µM: TGI (HOP-18 NSCLC)
